In patent US11304417B2, “Method of protecting determinate soybean from damage by a plant pathogen” (SUMITOMO CHEMICAL COMPANY, LIMITED, priority 2019, dated 2022):

Tests used:
Format in all cases: in vivo
[1] = system: Asian soybean rust (Phakopsora pachyrhizi); assay: Dripping mefentrifluconazole onto apical bud, Asian soybean rust inoculation, fresh weight of aerial part (Example 5 / Comparative Example 5); details: 500 g per hectare; for Treatment/control ratio (100 × A/B): dripped onto apical bud 0.5 mg per plant, 7 days from inoculation
Protocol: Two varieties of determinate soybean were sown to a pot filled with a soil at a sowing rate of 1,000,000 seeds per hectare. Then each determinate soybean was incubated for […] in a greenhouse. A mefentrifluconazole dilution liquid (prepared by diluting an aqueous suspension concentrate of mefentrifluconazole with water) is dripped onto the apical bud of determinate soybean plants so that the amount of mefentrifluconazole to be applied to each plant might be 0.5 mg. That is, the application rate of mefentrifluconazole was 500 g per hectare. Three days after the application, a pathogen of Asian soybean rust (Phakopsora pachyrhizi) was inoculated to the foliage of each determinate soybean. Each determinate soybean was incubated in a greenhouse for 7 days from the inoculation, and then fresh weight of the aerial part of each determinate soybean was measured. The fresh weight is referred to as ‘the fresh weight in treatment plot’.
As a control experiment, the same procedure was repeated except that dripping treatment with mefentrifluconazole dilution liquid and the inoculation of the pathogen were not conducted. The fresh weight obtained in the control experiment is referred to as ‘the fresh weight in control plot’.
The same procedure of the example 5 was repeated except for replacing two varieties of determinate soybean with two varieties of indeterminate soybean.

[2] = system: Asian soybean rust (Phakopsora pachyrhizi); assay: Seed dipping with mefentrifluconazole, Asian soybean rust inoculation, fresh weight of aerial part (Example 4 / Comparative Example 4); details: 200 g per hectare; for Treatment/control ratio (100 × A/B): seed dipping 0.2 mg per seed, 7 days from inoculation; for Protection from the damage by the pathogen: seed dipping
Protocol: Seeds of two varieties of determinate soybean were separately dipped in a mefentrifluconazole dilution liquid (prepared by diluting an aqueous suspension concentrate of mefentrifluconazole with water) so that the amount of mefentrifluconazole to be applied to each seed might be 0.2 mg. Then, the determinate soybean seeds were sown to a pot filled with a soil at a sowing rate of 1,000,000 seeds per hectare. That is, the application rate of mefentrifluconazole was 200 g per hectare. Each determinate soybean was incubated in a greenhouse for 11 days from the sowing, and then a pathogen of Asian soybean rust (Phakopsora pachyrhizi) was inoculated to the foliage of each determinate soybean. Each determinate soybean was incubated in a greenhouse for 7 days from the inoculation, and then fresh weight of the aerial part of each determinate soybean was measured. The fresh weight is referred to as ‘the fresh weight in treatment plot’. As a control experiment, the same procedure was repeated except that dipping treatment with mefentrifluconazole dilution liquid and the inoculation of the pathogen were not conducted. The fresh weight obtained in the control experiment is referred to as ‘the fresh weight in control plot’. The same procedure of the example 4 was repeated except for replacing two varieties of determinate soybean with two varieties of indeterminate soybean.

[3] = system: Asian soybean rust (Phakopsora pachyrhizi); assay: Dripping mefentrifluconazole onto primary leaf, Asian soybean rust inoculation, fresh weight of aerial part (Example 3 / Comparative Example 3); details: dripped onto primary leaf 0.2 mg per plant, 200 g per hectare, 14 days from inoculation
Protocol: Determinate soybean is sown to a pot filled with a soil at a sowing rate of 1,000,000 seeds per hectare. The determinate soybean is incubated for 10 days in a greenhouse, and then mefentrifluconazole dilution liquid (prepared by diluting an aqueous suspension concentrate of mefentrifluconazole with water) is dripped onto the primary leaf of determinate soybean so that the amount of mefentrifluconazole to be applied to each plant may be 0.2 mg. That is, the application rate of mefentrifluconazole is 200 g per hectare. On the next day of the application, a pathogen of Asian soybean rust (Phakopsora pachyrhizi) is inoculated to the foliage of determinate soybean. The determinate soybean is incubated in a greenhouse for 14 days from the inoculation, and then fresh weight of the aerial part of the determinate soybean is measured. It is confirmed that the fresh weight is equivalent to that of the control where determinate soybean is not treated with mefentrifluconazole and the pathogen is not inoculated (no-treatment-no-inoculation control) and is bigger than that of the control where determinate soybean is not treated with mefentrifluconazole and the pathogen is inoculated (no-treatment-inoculation control).
The same procedure of the example 3 is repeated except for replacing determinate soybean with indeterminate soybean or semi-determinate soybean. It is confirmed that the fresh weight of indeterminate soybean or semi-determinate soybean is smaller than that of the corresponding no-treatment-no-inoculation control and is equivalent to that of the corresponding no-treatment-inoculation control.

[4] = system: Asian soybean rust (Phakopsora pachyrhizi); assay: Foliar spray of mefentrifluconazole, Asian soybean rust inoculation, fresh weight of aerial part (Example 1 / Comparative Example 1); details: foliar spray 500 g per hectare, 14 days from inoculation
Protocol: Determinate soybean is sown to a pot filled with a soil. It is incubated for 7 days in a greenhouse. Mefentrifluconazole spray liquid (prepared by diluting an aqueous suspension concentrate of mefentrifluconazole with water) is uniformly sprayed onto the foliage of determinate soybean at the amount of 200 L per hectare so that the application rate of mefentrifluconazole may be 500 g per hectare. On the next day of the spraying, a pathogen of Asian soybean rust (Phakopsora pachyrhizi) is inoculated to the foliage of determinate soybean. The determinate soybean is incubated in a greenhouse for 14 days from the inoculation, and then fresh weight of the aerial part of the determinate soybean is measured. It is confirmed that the fresh weight is equivalent to that of the control where determinate soybean is not treated with mefentrifluconazole and the pathogen is not inoculated (no-treatment-no-inoculation control) and is bigger than that of the control where determinate soybean is not treated with mefentrifluconazole and the pathogen is inoculated (no-treatment-inoculation control). The same procedure of the example 1 is repeated except for replacing determinate soybean with indeterminate soybean or semi-determinate soybean. It is confirmed that the fresh weight of indeterminate soybean or semi-determinate soybean is smaller than that of the corresponding no-treatment-no-inoculation control and is equivalent to that of the corresponding no-treatment-inoculation control.

[5] = system: Asian soybean rust (Phakopsora pachyrhizi); assay: Seed coating with mefentrifluconazole, Asian soybean rust inoculation, fresh weight of aerial part (Example 2 / Comparative Example 2); details: seed coating 0.2 mg per seed, 20 g per hectare, 14 days from inoculation
Protocol: Seeds of determinate soybean are coated with a mefentrifluconazole aqueous suspension concentrate so that the amount of mefentrifluconazole to be applied to each seed may be 0.2 mg. Then, the determinate soybean seeds are sown to a pot filled with a soil at a sowing rate of 100,000 seeds per hectare. That is, the application rate of mefentrifluconazole is 20 g per hectare. Then, the determinate soybean is incubated in a greenhouse for 10 days, followed by inoculating a pathogen of Asian soybean rust (Phakopsora pachyrhizi) to the foliage of determinate soybean. The determinate soybean is incubated in a greenhouse for 14 days from the inoculation, and then the fresh weight of the aerial part of the determinate soybean is measured. It is confirmed that the fresh weight is equivalent to that of the control where determinate soybean is not treated with mefentrifluconazole and the pathogen is not inoculated (no-treatment-no-inoculation control) and is bigger than that of the control where determinate soybean is not treated with mefentrifluconazole and the pathogen is inoculated (no-treatment-inoculation control). The same procedure of the example 2 is repeated except for replacing determinate soybean with indeterminate soybean or semi-determinate soybean. It is confirmed that the fresh weight of indeterminate soybean or semi-determinate soybean is smaller than that of the corresponding no-treatment-no-inoculation control and is equivalent to that of the corresponding no-treatment-inoculation control.

[6] = Kurosengoku, indeterminate soybean
[7] = Toyomusume, determinate soybean
[8] = indeterminate or semi-determinate soybean

With `CC(O)(Cn1cncn1)c1ccc(Oc2ccc(Cl)cc2)cc1C(F)(F)F` (centres unmarked) [mefentrifluconazole] the “Treatment/control ratio (100 × A/B)” value [1, 6] was 49, the “Treatment/control ratio (100 × A/B)” value ([1]; Tambaguro, determinate soybean) was 82 and the “Treatment/control ratio (100 × A/B)” value [1, 7] was 85. For the same compound, the “Treatment/control ratio (100 × A/B)” value ([1]; Williams 82, indeterminate soybean) was 39, the “Protection from the damage by the pathogen” value (“Protection from the damage” below) ([1]; determinate versus indeterminate soybeans (Tables 3 and 4), dripped onto apical bud) was “protected much more effectively compared with indeterminate soybeans” and the “Treatment/control ratio (100 × A/B)” value ([2]; Harosoy, indeterminate soybean) was 55. For the same compound, the “Treatment/control ratio (100 × A/B)” value [2, 6] was 68, the “Treatment/control ratio (100 × A/B)” value ([2]; Tambaguro, determinate soybean) was 104 and the “Treatment/control ratio (100 × A/B)” value [2, 7] was 105. For the same compound, the “Protection from the damage” value ([2]; determinate soybean (Table 1)) was “successfully protected”, the “Protection from the damage” value ([2]; indeterminate soybean (Table 2)) was “not successfully protected” and the “Fresh weight of aerial part compared with no-treatment-inoculation control” value ([3]; determinate soybean) was “bigger”. For the same compound, the “Fresh weight of aerial part compared with no-treatment-no-inoculation control” value ([3]; determinate soybean) was “equivalent”, the “Fresh weight of aerial part compared with no-treatment-inoculation control” value [3, 8] was “equivalent” and the “Fresh weight of aerial part compared with no-treatment-no-inoculation control” value [3, 8] was “smaller”. For the same compound, the “Fresh weight of aerial part compared with no-treatment-inoculation control” value ([4]; determinate soybean) was “bigger”, the “Fresh weight of aerial part compared with no-treatment-no-inoculation control” value ([4]; determinate soybean) was “equivalent” and the “Fresh weight of aerial part compared with no-treatment-inoculation control” value [4, 8] was “equivalent”. For the same compound, the “Fresh weight of aerial part compared with no-treatment-no-inoculation control” value [4, 8] was “smaller”, the “Fresh weight of aerial part compared with no-treatment-inoculation control” value ([5]; determinate soybean) was “bigger” and the “Fresh weight of aerial part compared with no-treatment-no-inoculation control” value ([5]; determinate soybean) was “equivalent”. For the same compound, the “Fresh weight of aerial part compared with no-treatment-inoculation control” value [5, 8] was “equivalent” and the “Fresh weight of aerial part compared with no-treatment-no-inoculation control” value [5, 8] was “smaller”.
